The target of this experiment is T1, N-type calcium channel (Cav2.2) (Homo sapiens, UniProt Q00975).
T1 construct: expressed in transfected cells
Put plainly: Cav2.2 (N-type) calcium channel block: fluorescent potassium-depolarization assay and IonWorks / PatchXpress / manual patch clamp electrophysiology. The format is cell-based. To be noted: aforementioned assays (Assay Examples 1-3); which assay or condition is not specified; read-out: IC50 in antagonizing the N-type calcium channel. From the text: Human Cav2.2 channels were stably expressed in HEK293 cells along with alpha2-delta and beta subunits of voltage-gated calcium channels. An inwardly rectifying potassium channel (Kir2.3) was also expressed in these cells to allow more precise control of the cell membrane potential by extracellular potassium concentration. At low bath potassium concentration, the membrane potential is relatively negative, and is depolarized as the bath potassium concentration is raised. In this way, the bath potassium concentration can be used to regulate the voltage-dependent conformations of the channels. Compounds are incubated with cells in the presence of low (4 mM) potassium or elevated (12, 25 or 30 mM) potassium to determine the affinity for compound block of resting (closed) channels at 4 mM potassium or affinity for block of open and inactivated channels at 12, 25 or 30 mM potassium. After the incubation period, Cav2.2 channel opening is triggered by addition of higher concentration of potassium (70 mM final concentration) to further depolarize the cell. The degree of state-dependent block can be estimated from the inhibitory potency of compounds after incubation in different potassium concentrations.
Calcium influx through Cav2.2 channels is determined using a calcium-sensitive fluorescent dye in combination with a fluorescent plate reader. Fluorescent changes were measured with either a VIPR (Aurora Instruments) or FLIPR (Molecular Devices) plate reader.
• 1. Seed cells in Poly-D-Lysine Coated 96- or 384-well plate and keep in a 37° C.-10% CO2 incubator overnight • 2. […] Read cell plate on VIPR instrument, Excitation=480 nm, Emission=535 nm • 9. With VIPR continuously reading, add 0.1 mL (96-well plate) or 0.03 mL (384-well plate) of Depolarization Buffer, which is 2× the final assay concentration, to the cell plate. […]
Block of N-type calcium channels is evaluated utilizing the IonWorks HT 384 well automated patch clamp electrophysiology device. […]
On the technique in general: In patch-clamp work, channel activity is measured electrically.

Structures are written as SMILES.

T1 sequence (Q00975 whole entry): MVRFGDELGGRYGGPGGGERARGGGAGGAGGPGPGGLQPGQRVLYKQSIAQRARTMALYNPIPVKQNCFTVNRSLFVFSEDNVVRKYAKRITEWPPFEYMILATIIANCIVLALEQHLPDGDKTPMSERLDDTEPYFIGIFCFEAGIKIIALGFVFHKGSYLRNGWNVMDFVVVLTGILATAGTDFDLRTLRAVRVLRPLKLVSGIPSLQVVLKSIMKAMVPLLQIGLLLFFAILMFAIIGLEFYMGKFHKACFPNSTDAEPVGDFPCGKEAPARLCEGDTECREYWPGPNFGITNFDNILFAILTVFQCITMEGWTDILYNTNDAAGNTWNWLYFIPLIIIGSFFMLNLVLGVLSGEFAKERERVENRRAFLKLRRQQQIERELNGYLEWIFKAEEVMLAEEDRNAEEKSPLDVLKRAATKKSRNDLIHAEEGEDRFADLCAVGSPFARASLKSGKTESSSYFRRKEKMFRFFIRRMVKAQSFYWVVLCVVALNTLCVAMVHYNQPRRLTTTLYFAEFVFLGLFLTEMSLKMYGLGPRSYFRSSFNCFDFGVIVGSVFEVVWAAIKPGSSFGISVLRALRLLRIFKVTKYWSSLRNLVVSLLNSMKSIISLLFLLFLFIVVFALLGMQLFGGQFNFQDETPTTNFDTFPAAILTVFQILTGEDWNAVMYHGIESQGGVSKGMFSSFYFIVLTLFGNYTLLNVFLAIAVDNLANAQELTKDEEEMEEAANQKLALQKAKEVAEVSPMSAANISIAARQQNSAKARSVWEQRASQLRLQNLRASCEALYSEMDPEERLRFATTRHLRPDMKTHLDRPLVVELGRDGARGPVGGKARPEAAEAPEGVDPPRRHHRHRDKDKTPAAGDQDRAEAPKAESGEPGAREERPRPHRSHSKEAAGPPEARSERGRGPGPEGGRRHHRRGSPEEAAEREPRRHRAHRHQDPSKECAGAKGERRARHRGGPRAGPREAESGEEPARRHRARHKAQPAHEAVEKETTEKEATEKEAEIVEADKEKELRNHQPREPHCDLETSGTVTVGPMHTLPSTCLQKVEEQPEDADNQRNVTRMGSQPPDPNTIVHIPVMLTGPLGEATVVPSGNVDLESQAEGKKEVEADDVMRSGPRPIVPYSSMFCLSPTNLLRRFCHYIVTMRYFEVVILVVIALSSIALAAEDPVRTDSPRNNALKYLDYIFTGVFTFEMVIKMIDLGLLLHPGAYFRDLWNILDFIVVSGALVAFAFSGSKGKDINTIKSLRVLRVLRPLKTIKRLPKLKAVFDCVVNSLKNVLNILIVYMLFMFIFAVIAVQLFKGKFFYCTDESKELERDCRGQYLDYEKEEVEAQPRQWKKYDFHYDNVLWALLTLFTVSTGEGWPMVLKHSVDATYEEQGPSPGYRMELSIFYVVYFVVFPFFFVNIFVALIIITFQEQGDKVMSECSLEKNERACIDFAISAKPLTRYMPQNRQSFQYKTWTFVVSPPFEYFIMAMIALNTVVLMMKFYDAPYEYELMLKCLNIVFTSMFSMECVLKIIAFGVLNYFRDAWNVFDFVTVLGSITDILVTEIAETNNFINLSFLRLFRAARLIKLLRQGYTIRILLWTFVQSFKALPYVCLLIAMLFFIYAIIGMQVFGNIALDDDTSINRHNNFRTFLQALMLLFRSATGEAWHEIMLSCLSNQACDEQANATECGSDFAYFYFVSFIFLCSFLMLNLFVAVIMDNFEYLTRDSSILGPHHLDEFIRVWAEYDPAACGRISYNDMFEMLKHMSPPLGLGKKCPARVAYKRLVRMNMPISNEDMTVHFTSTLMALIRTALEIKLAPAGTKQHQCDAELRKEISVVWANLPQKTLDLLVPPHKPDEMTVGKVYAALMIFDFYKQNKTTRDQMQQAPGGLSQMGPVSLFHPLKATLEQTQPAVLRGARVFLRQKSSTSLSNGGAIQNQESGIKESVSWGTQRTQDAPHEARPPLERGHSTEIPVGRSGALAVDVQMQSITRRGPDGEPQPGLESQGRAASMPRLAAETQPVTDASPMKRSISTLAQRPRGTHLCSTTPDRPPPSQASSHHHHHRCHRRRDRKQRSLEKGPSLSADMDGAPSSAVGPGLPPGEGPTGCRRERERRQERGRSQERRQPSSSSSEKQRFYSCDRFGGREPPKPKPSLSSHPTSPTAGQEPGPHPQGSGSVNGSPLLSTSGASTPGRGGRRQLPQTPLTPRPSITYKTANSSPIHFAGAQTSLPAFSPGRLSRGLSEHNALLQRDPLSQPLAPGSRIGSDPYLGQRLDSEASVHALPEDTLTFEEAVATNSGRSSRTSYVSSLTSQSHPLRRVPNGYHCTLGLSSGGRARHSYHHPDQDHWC

As a reminder, the IC50 is the point on the concentration scale where inhibition reaches its midpoint. On to `CC1(Cc2cncnc2)C(=O)N(c2nc[nH]n2)c2ccc(-c3ccc(F)c(Cl)c3)cc21` (stereo not drawn) [Example 2, 5-(3-chloro-4-fluorophenyl)-3-methyl-3-(pyrimidin-5-ylmethyl)-1-(1H-1,2,4-triazol-3-yl)-1,3-dihydro-2H-indol-2-one], for which the IC50 was found to be 230 nM.
The result for `CC1(Cc2cncnc2)C(=O)N(c2cnc(N)cn2)c2ccc(-c3ccc(F)c(Cl)c3)cc21` (stereo not drawn) [Example 10, 1-(5-aminopyrazin-2-yl)-5-(3-chloro-4-fluorophenyl)-3-methyl-3-(pyrimidin-5-ylmethyl)-1,3-dihydro-2H-indol-2-one] reads 520 nM; that for `Cn1cnc(N2C(=O)C(C)(Cc3cncnc3)c3cc(-c4cccc(OC(F)(F)F)c4)ccc32)c1` (stereo not drawn) [Example 18, 3-methyl-1-(1-methyl-1H-imidazol-4-yl)-3-pyrimidin-5-ylmethyl-5-(3-trifluoromethoxy-phenyl)-1,3-dihydro-indol-2-one], 260 nM.

Source of the values: patent publication US8273749B2, “N-substituted oxindoline derivatives as calcium channel blockers” (Merck Sharp & Dohme Corp., priority 2007, dated 2012).
